These results are taken from patent publication US4623662A, “Antiatherosclerotic ureas and thioureas” (American Cyanamid Company, priority 1985, dated 1986).

Assay [1] concerns the target T1, fatty acyl CoA: cholesterol acyl transferase (ACAT) (Rattus norvegicus, UniProt O70536).
T1 construct: The supernatant, containing the microsomal fraction, served as the source of the cholesterol-esterifying enzyme; from tissue; host or cells: rat adrenals, supernatant of 1,000 x g centrifugation containing the microsomal fraction
T1 sequence (O70536 1-545): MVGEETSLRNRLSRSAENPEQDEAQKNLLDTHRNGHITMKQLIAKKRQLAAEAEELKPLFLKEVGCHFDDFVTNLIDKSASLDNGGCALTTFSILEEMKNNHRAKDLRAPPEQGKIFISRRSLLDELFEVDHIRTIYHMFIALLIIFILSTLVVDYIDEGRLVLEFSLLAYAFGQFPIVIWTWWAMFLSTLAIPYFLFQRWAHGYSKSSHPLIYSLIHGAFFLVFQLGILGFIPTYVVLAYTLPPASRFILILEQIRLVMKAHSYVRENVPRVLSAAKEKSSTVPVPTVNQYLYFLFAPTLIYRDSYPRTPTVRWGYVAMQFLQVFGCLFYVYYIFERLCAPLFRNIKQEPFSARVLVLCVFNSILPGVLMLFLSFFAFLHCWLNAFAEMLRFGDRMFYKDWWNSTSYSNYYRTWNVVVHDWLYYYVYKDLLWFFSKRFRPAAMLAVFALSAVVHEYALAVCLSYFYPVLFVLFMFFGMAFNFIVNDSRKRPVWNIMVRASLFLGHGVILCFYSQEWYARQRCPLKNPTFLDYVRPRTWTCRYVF
The experiment in a line: Inhibition of fatty acyl CoA:cholesterol acyl transferase (ACAT), rat adrenal enzyme. The class given is biochemical. The following applies: for pIC50: several concentrations. The procedure, abridged:
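Enzyme source was the microsomal supernatant of rat adrenal homogenate (0.2M potassium phosphate, pH 7.4) with BSA, preincubated with compound (5.2 μg/ml final for single-point) for 10 min at 37° C. Then [14C]oleoyl CoA added, 10 min at 37° C. TLC-separated cholesteryl ester was counted; percent inhibition versus control, IC50 from several concentrations.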

Another assay has as its system cholesterol absorption. The experiment in a line: Inhibition of cholesterol absorption in rats fed 1% cholesterol:0.5% cholic acid diet. The class given is in vivo, male Sprague-Dawley rats. The following applies: po, 336 h, rat, 2 weeks; for response vs control in vivo at 0.03 %: dose .03% of the diet; for response vs control in vivo at 0.01 %: dose .01% of the diet. In short, it runs like this: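 Male Sprague-Dawley rats (150-170 g) fed 1% cholesterol:0.5% cholic acid diet for 2 weeks with compound at 0.001, 0.003, 0.01 or 0.03% of diet. Serum cholesterol measured enzymatically; liver cholesterol from saponified large-lobe sample after petroleum ether extraction. Liver and serum sterol expressed as percent of untreated controls.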

The mark [2] stands for this setting: rat adrenal ACAT, final concentration 5.2 μg/ml, read-out: % Inhibition.
The mark [3] stands for this setting: read-out: LS (liver sterol), percentage of control values.
[4] abbreviates: read-out: SS (serum sterol), percentage of control values.

pIC50: −log10 of the molar value. Read-outs that look alike come from different tables or passages of the source.

Consider `CCCCCCCN(CCc1ccccc1)C(=O)Nc1ccc(F)cc1F` [1-(n-Heptyl)-1-(2-phenylethyl)-3-(2,4-difluorophenyl)urea], for which the inhibition at 5.2 µg/mL in assay [1] (setting [2]) was determined as 94.1%. Besides, the response vs control in vivo at 0.03 % with cholesterol absorption (setting [3]) was found to be 57%; in the assay with cholesterol absorption (setting [4]) it was 59%.
The corresponding values for `Cc1ccc(NC(=O)N(Cc2ccc(-c3ccccc3)cc2)Cc2ccc(Cl)c(Cl)c2)c(C)c1` [1-(4-Phenylbenzyl)-1-(3,4-dichlorobenzyl)-3-(2,4-dimethylphenyl)urea] are 36.3%, 17% and 49%.
The like results for `CCCCCCCN(Cc1ccc(CCCC)cc1)C(=O)Nc1ccc(Cl)cc1Cl` [1-(n-Heptyl)-1-(4-n-butylbenzyl)-3-(2,4-dichlorophenyl)urea] were, in that order, 80%, 50% and 58%.
`CCCCc1ccc(CN(CCCCC(C)(C)C)C(=O)Nc2c(Cl)cc(Cl)cc2Cl)cc1` [1-(5,5-Dimethylhexyl)-1-[4-(n-butyl)benzyl]-3-(2,4,6-trichlorophenyl)urea]: the inhibition at 5.2 µg/mL in assay [1] was determined as 90%. In addition, the response vs control in vivo at 0.03 % was determined as 32% with cholesterol absorption (setting [3]) and 45% in the assay with cholesterol absorption (setting [4]).
The corresponding values for `CCCCc1ccc(CN(CCCCCCO)C(=O)Nc2cc(C)c(C)cc2C)cc1` [1-[(4-Butylphenyl)methyl]-1-(6-hydroxyhexyl)-3-(2,4,5-trimethylphenyl)urea] are 90%, 39% and 57%.
The corresponding values for `CCCCc1ccc(CN(CCCCCCC#N)C(=O)Nc2c(Cl)cc(Cl)cc2Cl)cc1` [1-[(4-Butylphenyl)methyl]-1-(6-cyanohexyl)-3-(2,4,6-trichlorophenyl)urea] are 90%, 35% and 31%.
In the case of `CCCCCCCN(Cc1ccc(OCCCC)cc1)C(=O)Nc1ccc(Cl)cc1C` [1-(n-Heptyl)-1-(4-n-butoxybenzyl)-3-(2-methyl-4-chlorophenyl)urea], the inhibition at 5.2 µg/mL in assay [1] (setting [2]) is 91.7%. For the same compound, the response vs control in vivo at 0.03 % in the assay on cholesterol absorption (setting [3]) is 15%; with cholesterol absorption (setting [4]) it was 53%.
As to `CCCCCCCN(Cc1ccc(CCCC)cc1)C(=O)Nc1cc(C)c(Cl)cc1C` [1-(n-Heptyl)-1-[4-(n-butyl)benzyl]-3-(4-chloro-2,5-dimethylphenyl)urea], the inhibition at 5.2 µg/mL in assay [1] was 90%. Also, the response vs control in vivo at 0.03 % turned out to be 19% in the assay on cholesterol absorption (setting [3]) and 48% with cholesterol absorption (setting [4]).
`CCCCCCCN(Cc1ccc(CCCC(=O)OCC)cc1)C(=O)Nc1c(C)cc(Cl)cc1C` [1-(n-Heptyl)-1-[4-(3-carboethoxypropyl)benzyl]-3-(4-chloro-2,6-dimethylphenyl)urea] gave a negative logarithm of the IC50 (pIC50) in assay [1] (rat adrenal ACAT) of 5.97. Besides, the response vs control in vivo at 0.01 % in the assay on cholesterol absorption (setting [3]) was 65%; with cholesterol absorption (setting [4]) it was 55%.
`CCCCOc1ccc(CN(CCC(C)(C)C)C(=O)Nc2ccc(Cl)cc2C)cc1` [1-(3,3-Dimethylbutyl)-1-[4-(n-butoxy)benzyl]-3-(4-chloro-2-methylphenyl)urea] came in with an inhibition at 5.2 µg/mL in assay [1] of 90%. Besides, the values for the response vs control in vivo at 0.03 % with cholesterol absorption (setting [3]) and in the assay on cholesterol absorption (setting [4]) were 22% and 61%, respectively.
In assay [1], `CCCCc1ccc(CN(CCCCCCCl)C(=O)Nc2c(Cl)cc(Cl)cc2Cl)cc1` [1-[(4-Butylphenyl)methyl]-1-(6-chlorohexyl)-3-(2,4,6-trichlorophenyl)urea] registered an inhibition at 5.2 µg/mL of 90%. Besides, the figures for the response vs control in vivo at 0.03 % with cholesterol absorption (setting [3]) and in the assay with cholesterol absorption (setting [4]) were 19% and 34%, respectively.
On to `CCCCOc1ccc(CN(Cc2ccccc2)C(=O)Nc2ccc(Cl)cc2Cl)cc1` [1-Benzyl-1-(4-n-butoxybenzyl)-3-(2,4-dichlorophenyl)urea], for which the inhibition at 5.2 µg/mL in assay [1] (setting [2]) was determined as 80%. Moreover, the response vs control in vivo at 0.03 % in the assay with cholesterol absorption (setting [3]) was determined as 49%; in the assay with cholesterol absorption (setting [4]) it was 53%.
For `CCCCCCCN(Cc1cccs1)C(=O)Nc1cc(C)c(C)cc1C` [1-Heptyl-1-(2-thienylmethyl)-3-(2,4,5-trimethylphenyl)urea], 5.2 µg/mL produced 90% inhibition in assay [1]. Further, the response vs control in vivo at 0.03 % in the assay with cholesterol absorption (setting [3]) turned out to be 25%; with cholesterol absorption (setting [4]), 54%.
In the case of `CC(C)CCN(Cc1ccc(C(C)C)cc1)C(=O)Nc1ccc(F)cc1F` [1-(Isopentyl)-1-[4-(isopropyl)benzyl]-3-(2,4-difluorophenyl)urea], in assay [1] (rat adrenal ACAT), the pIC50 is 5.47. Moreover, the response vs control in vivo at 0.03 % in the assay with cholesterol absorption (setting [3]) is 37%; in the assay on cholesterol absorption (setting [4]) it was 49%.
In the case of `CCCCCCCN(Cc1ccc(CCCC)cc1)C(=O)Nc1c(Cl)cc(Cl)cc1Cl` [1-(n-Heptyl)-1-(4-n-butylbenzyl)-3-(2,4,6-trichlorophenyl)urea], 5.2 µg/mL produced 90% inhibition in assay [1]. Also, the response vs control in vivo at 0.03 % with cholesterol absorption (setting [3]) was found to be 8%; in the assay with cholesterol absorption (setting [4]), 28%.
The compound `CCCCCCCN(Cc1ccc(CCC(C)C)cc1)C(=O)Nc1ccc(Cl)cc1C` [1-(n-Heptyl)-1-[4-(4-isopentyl)benzyl]-3-(4-chloro-2-methylphenyl)urea] gave a pIC50 in assay [1] (rat adrenal ACAT) of 5.62. The response vs control in vivo at 0.01 % worked out at 17% in the assay on cholesterol absorption (setting [3]) and 20% in the assay with cholesterol absorption (setting [4]).
For `CCCCN(Cc1ccccc1)C(=O)Nc1ccc(Cl)cc1C` [1-(n-Butyl)-1-benzyl-3-(4-chloro-2-methylphenyl)urea], the inhibition at 5.2 µg/mL in assay [1] (setting [2]) amounted to 89%. The response vs control in vivo at 0.03 % with cholesterol absorption (setting [3]) came to 62%; with cholesterol absorption (setting [4]), 72%.
`CCCCCCCN(Cc1ccc(CCCC)cc1)C(=O)Nc1ccccc1C` [1-(n-Heptyl)-1-(4-n-butylbenzyl)-3-(2-methylphenyl)urea]: the inhibition at 5.2 µg/mL in assay [1] (setting [2]) is 97.4%. For the same compound, the response vs control in vivo at 0.03 % in the assay on cholesterol absorption (setting [3]) was determined as 29%; in the assay with cholesterol absorption (setting [4]), 35%.
The compound `CC(C)(C)CCN(Cc1ccc(CC(C)(C)C)cc1)C(=O)Nc1ccc(F)cc1F` [1-(3,3-Dimethylbutyl)-1-[4-(2,2-dimethylpropyl)benzyl]-3-(2,4-difluorophenyl)urea] returned an inhibition at 5.2 µg/mL in assay [1] of 90%. The values for the response vs control in vivo at 0.03 % with cholesterol absorption (setting [3]) and in the assay on cholesterol absorption (setting [4]) were 19% and 35%, respectively.
On to `CCCCOc1ccc(CN(Cc2ccccc2)C(=O)Nc2cc(Cl)c(Cl)cc2Cl)cc1` [1-Benzyl-1-(4-n-butyloxybenzyl)-3-(2,4,5-trichlorophenyl)urea], for which, in assay [1] (setting [2]), the inhibition at 5.2 µg/mL is 89%. The results for the response vs control in vivo at 0.03 % in the assay on cholesterol absorption (setting [3]) and with cholesterol absorption (setting [4]) were 65% and 66%, respectively.
For the compound `CCCCN(Cc1ccccc1)C(=O)Nc1ccc(C)cc1C` [1-Benzyl-1-(n-butyl)-3-(2,4-dimethylphenyl)urea], the inhibition at 5.2 µg/mL in assay [1] (setting [2]) amounted to 91.3%. Moreover, the response vs control in vivo at 0.03 % is 65% in the assay with cholesterol absorption (setting [3]) and 70% in the assay on cholesterol absorption (setting [4]).
The compound `Cc1cc(Cl)ccc1NC(=O)N(CCC(C)(C)C)Cc1ccc(CC(C)(C)C)cc1` [1-(3,3-Dimethylbutyl)-1-[4-(2,2-dimethylpropyl)benzyl]-3-(4-chloro-2-methylphenyl)urea] yielded an inhibition at 5.2 µg/mL in assay [1] of 90%. The response vs control in vivo at 0.03 % in the assay on cholesterol absorption (setting [3]) was 20%; in the assay on cholesterol absorption (setting [4]), 51%.
The like results for `CCCCCCCN(CCc1ccccc1)C(=O)Nc1ccc(Cl)cc1C(F)(F)F` [1-(n-Heptyl)-1-(2-phenylethyl)-3-(2-trifluoromethyl-4-chlorophenyl)urea] were, in that order, 88.3%, 80% and 79%.
Regarding `Cc1cc(Cl)ccc1NC(=O)N(Cc1ccc(Cl)cc1)Cc1cccc2ccccc12` [1-(4-Chlorobenzyl)-1-(1-naphthylmethyl)-3-(2-methyl-4-chlorophenyl)urea], the inhibition at 5.2 µg/mL in assay [1] (setting [2]) was found to be 94%. The response vs control in vivo at 0.03 % in the assay with cholesterol absorption (setting [3]) was determined as 17%; in the assay with cholesterol absorption (setting [4]), 35%.
`CCCCc1ccc(CN(CCC(C)(C)C)C(=O)Nc2c(C)cc(Cl)cc2C)cc1` [1-(3,3-Dimethylbutyl)-1-[4-(n-butyl)benzyl]-3-(4-chloro-2,6-dimethylphenyl)urea] displayed an inhibition at 5.2 µg/mL in assay [1] of 90%. Moreover, the response vs control in vivo at 0.03 % came to 12% in the assay on cholesterol absorption (setting [3]) and 28% with cholesterol absorption (setting [4]).

As a reminder, the inhibition is the change of the read-out against control, counted positive when it falls. A word on the pIC50: it is the IC50 on a negative log10 scale, so that one unit is a factor of ten.
